Assay [1] addresses T1, Tyrosinase (Agaricus bisporus) (UniProt O42713).
T1 sequence (whole entry): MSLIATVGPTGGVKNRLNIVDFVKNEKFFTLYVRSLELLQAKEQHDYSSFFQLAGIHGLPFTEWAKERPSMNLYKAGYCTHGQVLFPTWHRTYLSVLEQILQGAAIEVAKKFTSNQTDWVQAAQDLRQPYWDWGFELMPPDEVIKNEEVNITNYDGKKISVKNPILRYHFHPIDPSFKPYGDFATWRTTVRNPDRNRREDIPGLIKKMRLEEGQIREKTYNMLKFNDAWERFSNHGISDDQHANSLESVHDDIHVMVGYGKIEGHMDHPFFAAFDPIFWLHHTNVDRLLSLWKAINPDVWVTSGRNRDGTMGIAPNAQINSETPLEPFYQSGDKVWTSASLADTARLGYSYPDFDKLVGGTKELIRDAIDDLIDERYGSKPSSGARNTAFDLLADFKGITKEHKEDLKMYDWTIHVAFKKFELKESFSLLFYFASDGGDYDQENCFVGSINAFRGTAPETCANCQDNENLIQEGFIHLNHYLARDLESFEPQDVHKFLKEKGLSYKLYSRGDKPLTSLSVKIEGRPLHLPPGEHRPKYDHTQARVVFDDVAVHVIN
As to the kind of experiment: Ratio of IC50 for mushroom tyrosinase diphenolase activity using L-DOPA as substrate to IC50 for mushroom tyrosinase monophenolase activity using L-tyrosine as substrate.

Assay [2] concerns the target T2, Tyrosinase (Agaricus bisporus, UniProt O42713).
T2 sequence (O42713 whole entry): T1 sequence (whole entry)
As to the kind of experiment: (§1) Inhibition of mushroom tyrosinase monophenolase activity using L-tyrosine as substrate measured every 60 s for 25 times.

Assay [3] concerns the target T1, Tyrosinase (Agaricus bisporus). Described as §1.
Assay [4] deals with T2, Tyrosinase. As to the kind of experiment: (§2) Inhibition of mushroom tyrosinase diphenolase activity using L-DOPA as substrate measured every 30 s for 25 times.
Assay [5] concerns the target T2, Tyrosinase. Put plainly: Inhibition of mushroom tyrosinase using L-tyrosine as substrate assessed as dopachrome formation preincubated for 10 mins followed by protein addition measured after 20 mins by microplate reader analysis.
In assay [6] the target is T1, Tyrosinase (Agaricus bisporus). Described as §2.
Assay [7] has the same target. Put plainly: Potency index, ratio of IC50 for benzoic acid to IC50 for test compound for inhibition of mushroom tyrosinase monophenolase activity.
For assay [8] the target is unchanged. Put plainly: Mixed-type inhibition of mushroom tyrosinase diphenolase activity using L-DOPA as substrate at 3 to 30 uM measured every 30 s for 25 times by Lineweaver-Burk plot analysis.
The target is the same in assay [9]. Put plainly: Non-competitive inhibition of mushroom tyrosinase monophenolase activity using L-tyrosine as substrate at 5 to 10 uM measured every 60 s for 25 times by Lineweaver-Burk plot analysis.
The target of assay [10] is T2, Tyrosinase. Put plainly: Inhibition of mushroom tyrosinase using L-DOPA as substrate preincubated for 5 mins followed by substrate addition measured for 2 mins by spectrophotometric analysis.

The source made the active and inactive calls. No cut-off for these calls is given here.

As to `O=C(O)c1ccc(-c2ccccc2)cc1`, in assay [1], the Ratio IC50 turned out to be 3.42. Besides, the concentration for half-maximal inhibition (IC50) (as a rule, the concentration at which inhibition is half-maximal) was 63.2 µM in [2] and 216 µM in [4]. In addition, the inhibition entry in assay [3] is “Dose-dependent effect”.

With `COc1ccc(C(=O)O)cc1` [p-ANISIC ACID], in assay [5], the concentration for half-maximal inhibition (IC50) turned out to be 420 µM.

Take `CCOC(=O)c1cccc(-c2ccccc2)c1`: the inhibition entry in [3] and in [6] was “inactive” in each case.

Turning to `Nc1ccc(C(=O)O)cc1` [AMINOBENZOIC ACID], in [5], the IC50 turned out to be 3.8 µM.

Regarding `O=C(O)c1cccc(-c2ccccc2)c1`, the Ratio IC50 in [1] turned out to be 5.21; in assay [7], 30. Also, the inhibition entry in assay [8] and in [9] was “Active” in each case. For the same molecule, the IC50 in assay [2] stood at 6.97 µM; in [4] it was 36.3 µM. For the same molecule, the inhibition entry in assay [3] is “Dose-dependent effect”.

For `O=C(O)c1ccccc1` [BENZOIC ACID], in [1], the Ratio IC50 came to 3.66. Also, the IC50 in assay [10] was 710 µM; in assay [2], 224 µM; in assay [4], 822 µM.

As for `O=C(O)c1ccccc1-c1ccccc1`, the IC50 in [2] and in assay [4] was > 1000 µM each time.

For the origin of these results see ChEMBL document CHEMBL4425197, “Discovery of a new type of scaffold for the creation of novel tyrosinase inhibitors” (Bioorg Med Chem, 2016).
